Assay results from article PMC8710297, “Identification of potent SENP1 inhibitors that inactivate SENP1/JAK2/STAT signaling pathway and overcome platinum drug resistance in ovarian cancer” (Clinical and Translational Medicine, 2021).

Experiments:
IGROV1 CR cells [1] = assay: Synergy with cisplatin, SRB cell viability, combination index; format: cell-based
Experimental: (§1) Cell viability was measured by SRB assay. […] Data were represented as mean ± SD (n = 3). (B) Colony formation assay in cells treated as indicated. […] (D) Growth curves of xenograft tumors are shown in (C). Data are represented as means ± SEM, n = 6 mice/group. **p < 0.01. […] (F) IGROV1 CR xenograft tumor growth curve by indicated treatments. Data are represented as means ± SD, n = 6 tumors/group. **p < 0.01. (G) Immunohistochemistry (IHC) staining against pSTAT3 antibodies of tumor samples from four groups of mice (magnification, 200x) (Upper). […]
represented as mean ± SD (n = 3) . ( B) Body we i ght changes of mice in each grou p treated […]
[…] Data are rep res e nted as mea ns ± SD, n= 6 tu mors /g roup . (C) H&E staining of paraffin‐embedded 3‐μm‐th ick tissue sec tions of the tumor, heart, lung , liver and kidney from 4 groups of mice (m agn i f ication , ×200) treated in B.
Cisplatin: sl ightl y […]
means ± SD, n=6 tumors/group . […]
1. Antibodies and re a ge nt s […]
[…] Momordin Ic ( A14773; Adooq Biosc ience) was dissolved in DMSO. Ursolic acid (A10961; Adooq Bioscience) wa s dissolved in DMSO. […]
Cell viability was detected using Sulforhodamine B (SRB) assay as described previously (3).
Absorbance at 51 0 nm was detected using a SpectraMax Re a d e r (Molecular Devices) and an alyzed with SoftMax Analys is Software (Molecular Devices). […]

IGROV1 CR xenograft = IGROV1 CR xenograft tumor growth; format: in vivo; settings: nude mice, i.p., cisplatin 8 mg/kg/2 days + UA 10 mg/kg/2 days or UAMMC9 2 mg/kg/2 days, compared to single agents
Experimental: Importantly, the treatments had minor toxicity (Figures S3B–D).
as §1
ac etoni tri le (solvent A) and 0.02% phosphoric ac id in 10% acetonitrile in wate r (solvent B) at a constant solvent flow rate of 1.0 mL/min.
9. Molecular docking and dynamics simulation
Docking and scoring were performed by using Schrödinger software pa c ka ge. Lig Prep wa s incorp orated to refin e UA (ligand). Ionization state s within pH=7.0±2.0 were selected fo r docking. SENP1 crystal structu re was downloaded from protein datab ank (PDB ID: 2IY0, http :// ww w.rcsb.org /). […] The protein wa s added hyd ro g e n atom s and charges, removed wate rs by Protein Preparation Wi zard module. […] The extended sampling method wa s selected fo r confor mationa l search, and the resi du es in the ra n ge of ligand 5 Å we re further optimized. […]
6 tumors per group were assessed. […]

IGROV1 CR cells [2] = assay: Drug synergy screening: SRB proliferation assay with 2 μM cisplatin; format: cell-based
Experimental: (A) Collection of Momordin Ic (Mc) natural compound analogues. […] Cell proliferation was determined by the sulforhodamine B (SRB) assay. […] IGROV1 CR cells were incubated with Mc at indicated concentrations for 48 h and then harvested for Western blot for indicated proteins. […] IGROV1 CR cells were incubated with UA and then treated as in C. […] Intensity of SUMOylated JAK2 was measured by Quantity One software. […] Recombinant His‐JAK2 was SUMOylated by in vitro SUMOylation assay, and then SUMOylated JAK2 proteins were incubated with or without recombinant GST‐SENP1 together with Mc for 3 h. […] In vitro assay was performed as in (F). […]

SMILES | synergy with cisplatin to inhibit IGROV1 CR cells (IGROV1 CR cells [1]) | reduction of tumor growth in combination with cisplatin (IGROV1 CR xenograft) | IC50 of UA derivatives to inhibit resistant cells together with cisplatin (in words) (IGROV1 CR cells [2])
C[C@H]1[C@H](C)CC[C@]2(C(=O)O)CC[C@]3(C)C(=CC[C@@H]4[C@@]5(C)CC[C@H](O)C(C)(C)[C@@H]5CC[C@]43C)[C@H]12 [UA, ursolic acid, reference compound] | great synergy | remarkable synergy | –
C[C@H]1[C@H](C)CC[C@]2(C(=O)NCC(=O)N(C)CCO)CC[C@]3(C)C(=CC[C@@H]4[C@@]5(C)CC[C@H](O)C(C)(C)[C@@H]5CC[C@]43C)[C@H]12 [UAMMC9] | great synergy | remarkable synergy | lower IC50
